One experiment addresses T1, μ-opioid receptor (MOR) (Homo sapiens, UniProt P35372).
T1 construct: host or cells: cAMP Hunter CHO-K1 OPRM1 Gαi cell line
The experiment in a line: MOR agonist cAMP assay (HitHunter cAMP, forskolin-stimulated). The class given is cell-based. On the procedure:
(§1) The HitHunter® cAMP chemiluminescent assay kit (DiscoveRx, Cat# 90-0075 SM25) was used to detect cAMP production in cAMP Hunter™ Gαi cell lines over expressing either Human-ORPM1 (Discoverx, Catalog# 95-0107C2) or Human-ORPD1 (DiscoveRx, Catalog# 95-0108C2). Opioid agonist binding to the Gαi receptors inhibits the intracellular cAMP accumulation induced by forskolin, which activates adenylate cyclase and increases intracellular levels of cAMP.
(§2) Cells were cultured in media consisting of Ham's F-12 Nutrient Mix (Life Technologies, Catalog#31765035), 10% FBS (Life Technologies, Catalog# 16140-071), 4 mM GlutaMAX (Life Technologies, Catalog#35050-061), […] (Life Technologies), 100 ug/ml of Penn-Strep (Life Technologies) and 0.5 mg/ml Geneticin (Life Technologies, Catalog# 10131-027). The cultures were maintained at 37° C. under 5% CO2.
(§3) In preparation for cAMP assay, the cells were seeded at a density of 300,000 cells/ml in 100 ul of media/well in 96-well microplate. Wells that were designated for cAMP standards were left empty.
(§4) Opioid agonist serial dilutions were prepared in separate dilution plate (11-point series of 3× (3-fold) dilution) in Cell Assay buffer, including 3× forskolin for Gαi target. For Hunter CHO-K1 OPRM1 or CHO-K1 OPRD1 Gαi Cell Lines, the final forskolin concentration was 20 uM.
(§5) 15 ul of each 3× opioid agonist serial dilution was added in the presence of forskolin in duplicate to the designated wells. The final concentration of each dilution was at 3× of the final screening concentration. The assay plate was incubated for 30 min, at 37° C. under 5% CO2.
(§6) Cellular cAMP concentrations were measured using the HitHunter cAMP Assay kit following the manufacturer's protocol. HitHunter cAMP assay is a gain-of-signal competitive immunoassay based on Enzyme Fragment Complementation (EFC) technology. The kit uses β-galactosidase (β-gal) enzyme split into Enzyme Donor (ED) and Enzyme Acceptor (EA). The cellular cAMP and ED-labelled cAMP compete for anti-cAMP antibody. […] When cellular cAMP level is high, it competes for the anti-cAMP antibody, thereby releasing ED-cAMP to complement with EA to produce a luminescent signal. The amount of signal is directly proportional to the amount of cAMP in cells and can be quantified using cAMP standards. The assay plates were read using a PerkinElmer Envision instrument to detect the chemiluminescence signal in each well (luminescence reader at 0.1 to 1 second/well). Data analysis was performed using Graphpad Prism 7.EC50 was calculated by nonlinear regression, using the four-parameter hill equation.
On the technique in general: cAMP levels reflect the balance of adenylyl cyclase and phosphodiesterase activity.

A further experiment deals with T2, δ-opioid receptor (DOR) (Homo sapiens, UniProt P41143).
T2 construct: host or cells: cAMP Hunter CHO-K1 OPRD1 Gαi cell line
T2 sequence (P41143 whole entry): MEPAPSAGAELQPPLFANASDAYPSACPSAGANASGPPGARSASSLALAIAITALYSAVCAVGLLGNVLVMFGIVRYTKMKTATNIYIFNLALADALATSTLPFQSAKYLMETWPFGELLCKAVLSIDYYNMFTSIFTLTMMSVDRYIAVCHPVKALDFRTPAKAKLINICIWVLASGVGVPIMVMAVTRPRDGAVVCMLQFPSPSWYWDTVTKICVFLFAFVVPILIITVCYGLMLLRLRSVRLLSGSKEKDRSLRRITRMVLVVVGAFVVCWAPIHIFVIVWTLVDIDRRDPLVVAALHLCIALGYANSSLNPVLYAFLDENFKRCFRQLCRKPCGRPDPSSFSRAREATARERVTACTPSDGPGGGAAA
Nature of the experiment: DOR agonist cAMP assay (HitHunter cAMP, forskolin-stimulated). The experiment is classed as cell-based. On the procedure:
as §1, §2, §3, §4, §5, §6

Square brackets hold non-standard residues; d marks the D form. Peptide text beside a SMILES is read from it. Bip = N[C@@H](Cc1ccc(-c2ccccc2)cc1)C(=O)O; Phe(4-F) = N[C@@H](Cc1ccc(F)cc1)C(=O)O; Dmt = Cc1cc(O)cc(C)c1C[C@H](N)C(=O)O; dNMeA = CN[C@H](C)C(=O)O; Sar = CNCC(=O)O

T1 sequence (P35372 whole entry): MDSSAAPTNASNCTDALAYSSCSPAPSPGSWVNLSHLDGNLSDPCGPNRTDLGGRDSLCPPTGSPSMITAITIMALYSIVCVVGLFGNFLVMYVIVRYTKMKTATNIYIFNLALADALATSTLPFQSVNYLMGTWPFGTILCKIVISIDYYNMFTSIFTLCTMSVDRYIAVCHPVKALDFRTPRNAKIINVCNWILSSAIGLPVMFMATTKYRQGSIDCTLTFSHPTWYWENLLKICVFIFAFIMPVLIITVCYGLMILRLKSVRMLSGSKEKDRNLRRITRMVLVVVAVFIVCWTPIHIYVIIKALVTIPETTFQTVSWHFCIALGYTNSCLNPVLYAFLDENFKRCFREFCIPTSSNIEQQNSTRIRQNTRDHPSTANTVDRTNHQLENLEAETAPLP

On to `Cc1cc(O)cc(C)c1C[C@H](N)C(=O)N[C@H](CCCNC(=N)N)C(=O)N[C@@H](Cc1ccc(-c2ccccc2)cc1)C(=O)N[C@@H](CCCCN)C(N)=O` [compound 3] (H-[Dmt][dR][Bip]K-NH2), for which the EC50 (usually the concentration giving half of the maximal effect) on μ-opioid receptor (MOR) was 50 to 200 nM; at δ-opioid receptor (DOR), above 200 nM.

With `Cc1cc(O)cc(C)c1C[C@H](N)C(=O)N[C@H](CCCNC(=N)N)C(=O)N[C@@H](Cc1c[nH]cn1)C(=O)N[C@@H](CCCCN)C(N)=O` [compound 4] (H-[Dmt][dR]HK-NH2), the results for the EC50 on μ-opioid receptor (MOR) and at δ-opioid receptor (DOR) were 10 to 50 nM and above 200 nM, respectively.

Regarding `Cc1cc(O)cc(C)c1C[C@H](N)C(=O)N[C@H](CCCNC(=N)N)C(=O)N[C@@H](Cc1ccccc1)C(=O)N(C)[C@@H](CCCCN)C(N)=O` [compound 5], the EC50 was below 1 nM at μ-opioid receptor (MOR) and above 200 nM at δ-opioid receptor (DOR).

For the molecule `Cc1cc(O)cc(C)c1C[C@H](N)C(=O)N[C@H](CCCNC(=N)N)C(=O)N[C@@H](Cc1ccccc1)C(=O)N(C)CC(N)=O` [compound 9] (H-[Dmt][dR]F[Sar]-NH2), the EC50 at μ-opioid receptor (MOR) was below 1 nM; at δ-opioid receptor (DOR), 1 to 10 nM.

Turning to `Cc1cc(O)cc(C)c1C[C@H](N)C(=O)N(C)[C@H](C)C(=O)N[C@@H](Cc1ccccc1)C(=O)N(C)CC(N)=O` [compound 10] (H-[Dmt][dNMeA]F[Sar]-NH2), the EC50 on μ-opioid receptor (MOR) is below 1 nM; on δ-opioid receptor (DOR), 1 to 10 nM.

In the case of `Cc1cc(O)cc(C)c1C[C@H](N)C(=O)N[C@H](CCCNC(=N)N)C(=O)N[C@@H](CCc1ccccc1)C(=O)N(C)CCC(=O)O` [compound 12], the EC50 at μ-opioid receptor (MOR) and at δ-opioid receptor (DOR) was below 1 nM throughout.

Turning to `Cc1cc(O)cc(C)c1C[C@H](N)C(=O)N[C@H](CCCNC(=N)N)C(=O)N[C@@H](Cc1ccc(F)cc1)C(=O)N(C)CC(N)=O` [compound 19] (H-[Dmt][dR][Phe(4-F)][Sar]-NH2), the EC50 at μ-opioid receptor (MOR) is below 1 nM; on δ-opioid receptor (DOR), 1 to 10 nM.

Molecule `CCCC[C@H](NC(=O)[C@H](CCc1ccccc1)NC(=O)CNC(=O)[C@@H](C)NC(=O)[C@@H](N)Cc1c(C)cc(O)cc1C)C(N)=O` [compound 49] came in with an EC50 at μ-opioid receptor (MOR) below 1 nM.

With `Cc1cc(O)cc(C)c1C[C@H](N)C(=O)N(C)[C@@H](CCCNC(=N)N)C(=O)NCC(=O)N[C@H](CC(=O)N(C)CC(N)=O)Cc1ccccc1` [compound 91], the EC50 on δ-opioid receptor (DOR) lay in the range of 50 to 200 nM.

With `Cc1cc(O)cc(C)c1C[C@H](N)C(=O)N[C@H](C)C(=O)NCC(=O)N1Cc2ccccc2C[C@H]1C(=O)N(C)CC(N)=O` [compound 107], on δ-opioid receptor (DOR), the EC50 was 10 to 50 nM.

Molecule `CCCCCCCCN(CC(N)=O)C(=O)C[C@H](Cc1ccccc1)NC(=O)CNC(=O)[C@@H](C)NC(=O)[C@@H](N)Cc1c(C)cc(O)cc1C` [compound 115] came in with a concentration for a half-maximal effect (EC50) at δ-opioid receptor (DOR) of 10 to 50 nM.

On δ-opioid receptor (DOR), `Cc1cc(O)cc(C)c1C[C@H](N)C(=O)N[C@H](C)C(=O)NCC(=O)N[C@H](CC(=O)N(CC(N)=O)CC1CCCCC1)Cc1ccccc1` [compound 119] came in with an EC50 of 1 to 10 nM.

On to `Cc1cc(O)cc(C)c1C[C@H](N)C(=O)N[C@H](C)C(=O)NCC(=O)N[C@H](CC(=O)N(CCC(=O)O)CC(N)=O)Cc1ccccc1` [compound 120], for which the EC50 on δ-opioid receptor (DOR) was below 1 nM.

`Cc1cc(O)cc(C)c1C[C@H](N)C(=O)N[C@H](C)C(=O)NCC(=O)N[C@H](CC(=O)N(CCc1ccccc1)CC(N)=O)Cc1ccccc1` [compound 121] yielded an EC50 at δ-opioid receptor (DOR) below 1 nM.

Consider `Cc1cc(O)cc(C)c1C[C@H](N)C(=O)N[C@H](C)C(=O)NCC(=O)N[C@H](CC(=O)N(CC(N)=O)C1CCCCC1)Cc1ccccc1` [compound 123], for which, on δ-opioid receptor (DOR), the EC50 was below 1 nM.

For the molecule `CCCCCN(CC(N)=O)C(=O)C[C@H](Cc1ccccc1)NC(=O)CNC(=O)[C@@H](C)NC(=O)[C@@H](N)Cc1c(C)cc(O)cc1C` [compound 124], on δ-opioid receptor (DOR), the EC50 was below 1 nM.

As for `CCCC[C@@H](C(=O)O)N(C)C(=O)[C@@H](Cc1ccccc1)N(C)C(=O)CNC(=O)[C@@H](C)NC(=O)[C@@H](N)Cc1c(C)cc(O)cc1C` [compound 154], on μ-opioid receptor (MOR), the EC50 was below 1 nM.

On δ-opioid receptor (DOR), `CCCC[C@@H](C(=O)O)N(C)C(=O)C[C@H](Cc1ccccc1C)NC(=O)CNC(=O)[C@@H](C)NC(=O)[C@@H](N)Cc1c(C)cc(C(N)=O)cc1C` [compound 163] showed an EC50 of 1 to 10 nM.

For the origin of these results see patent US10278957B2, “Opioid agonist peptides and uses thereof” (Protagonist Therapeutics, Inc., priority 2017, dated 2019).
